In paper PMC5374441 (Scientific Reports, 2017):
Bridge positions count the residues as written; N and C are the ends. Peptide text beside a SMILES is read from it.

Legend:
human α3β4 nAChR = human α3β4 nAChR (Homo sapiens, UniProt P30926+P32297); experiment: cell-based
Ls-AChBP = target: T1, Ls-AChBP (Lymnaea stagnalis, UniProt P58154); experiment: biochemical; format: binding; details: SEM
T1 construct: made in house

human α7 nAChR = human α7 nAChR (Homo sapiens, UniProt P36544); experiment: cell-based; details: SEM
Chain of human α7 nAChR (P36544 23-502 limits assumed): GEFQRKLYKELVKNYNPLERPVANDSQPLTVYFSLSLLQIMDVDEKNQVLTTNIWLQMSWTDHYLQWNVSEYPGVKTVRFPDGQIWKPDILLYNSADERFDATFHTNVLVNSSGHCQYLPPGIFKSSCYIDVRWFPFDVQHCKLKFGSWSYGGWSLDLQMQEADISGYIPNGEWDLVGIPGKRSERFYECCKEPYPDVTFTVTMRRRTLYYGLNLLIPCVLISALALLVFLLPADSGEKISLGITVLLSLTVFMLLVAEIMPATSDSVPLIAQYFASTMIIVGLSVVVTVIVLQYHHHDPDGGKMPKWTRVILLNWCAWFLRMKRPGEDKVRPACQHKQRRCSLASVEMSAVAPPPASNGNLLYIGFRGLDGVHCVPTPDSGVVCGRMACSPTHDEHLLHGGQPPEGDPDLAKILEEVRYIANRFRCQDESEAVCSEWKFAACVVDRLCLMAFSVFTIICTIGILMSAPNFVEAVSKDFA

Ac-AChBP = target: T2, Ac-AChBP (Aplysia californica, UniProt Q8WSF8); experiment: biochemical; format: binding; details: SEM
T2 construct: made in house
T2 sequence (Q8WSF8 18-236 limits assumed): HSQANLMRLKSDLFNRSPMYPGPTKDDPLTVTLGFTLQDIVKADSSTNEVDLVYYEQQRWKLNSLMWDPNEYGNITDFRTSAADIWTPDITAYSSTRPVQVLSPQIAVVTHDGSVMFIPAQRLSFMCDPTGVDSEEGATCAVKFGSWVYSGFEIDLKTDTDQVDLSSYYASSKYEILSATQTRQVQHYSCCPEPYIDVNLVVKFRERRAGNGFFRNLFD

T1 sequence (P58154 20-229 limits assumed): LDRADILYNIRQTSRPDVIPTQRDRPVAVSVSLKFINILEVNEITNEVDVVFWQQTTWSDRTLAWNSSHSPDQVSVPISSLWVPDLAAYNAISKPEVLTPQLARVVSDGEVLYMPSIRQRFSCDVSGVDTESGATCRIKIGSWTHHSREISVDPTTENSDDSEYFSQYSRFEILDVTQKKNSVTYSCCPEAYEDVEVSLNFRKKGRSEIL
Chain of human α3β4 nAChR (P32297 32-505 limits assumed): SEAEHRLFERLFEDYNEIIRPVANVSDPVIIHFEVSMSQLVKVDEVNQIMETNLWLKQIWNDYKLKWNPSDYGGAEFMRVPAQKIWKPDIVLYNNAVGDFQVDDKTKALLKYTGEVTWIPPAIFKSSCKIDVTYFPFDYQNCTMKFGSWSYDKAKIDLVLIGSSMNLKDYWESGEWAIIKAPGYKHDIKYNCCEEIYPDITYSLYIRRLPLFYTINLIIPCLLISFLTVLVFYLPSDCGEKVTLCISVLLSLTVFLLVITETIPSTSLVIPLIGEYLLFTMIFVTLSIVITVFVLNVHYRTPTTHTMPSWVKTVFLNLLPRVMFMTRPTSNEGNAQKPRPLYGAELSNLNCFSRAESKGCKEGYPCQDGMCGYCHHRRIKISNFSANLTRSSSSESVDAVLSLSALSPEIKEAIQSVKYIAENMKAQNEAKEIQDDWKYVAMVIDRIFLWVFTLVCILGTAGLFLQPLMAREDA
Chain of human α3β4 nAChR (P30926 22-498 limits assumed): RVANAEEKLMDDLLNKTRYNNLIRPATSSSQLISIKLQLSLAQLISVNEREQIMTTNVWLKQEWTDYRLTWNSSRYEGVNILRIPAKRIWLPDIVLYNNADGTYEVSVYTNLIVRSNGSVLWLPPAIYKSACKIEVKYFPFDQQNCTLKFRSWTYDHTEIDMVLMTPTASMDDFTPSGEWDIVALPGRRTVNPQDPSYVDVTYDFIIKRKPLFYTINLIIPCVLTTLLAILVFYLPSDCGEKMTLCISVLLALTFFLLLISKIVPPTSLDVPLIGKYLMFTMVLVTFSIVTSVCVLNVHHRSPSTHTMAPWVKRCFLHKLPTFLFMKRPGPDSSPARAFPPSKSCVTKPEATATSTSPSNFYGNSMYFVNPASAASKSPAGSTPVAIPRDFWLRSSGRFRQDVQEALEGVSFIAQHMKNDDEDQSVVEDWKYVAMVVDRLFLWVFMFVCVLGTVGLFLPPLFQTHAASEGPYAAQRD

CC[C@H](C)[C@@H]1NC(=O)[C@H](CC(N)=O)NC(=O)[C@@H]2CCCN2C(=O)[C@H](CC(N)=O)NC(=O)[C@H](CC(N)=O)NC(=O)[C@H](C(C)C)NC(=O)[C@H](CCCNC(=N)N)NC(=O)[C@@H]2CSSC[C@H](NC(=O)CNC(=O)[C@@H](N)CO)C(=O)N[C@@H](CSSC[C@@H](C(N)=O)NC1=O)C(=O)N[C@@H](CO)C(=O)N[C@@H](CC(N)=O)C(=O)N1CCC[C@H]1C(=O)N[C@@H](C)C(=O)N2 [LsIA] (H-SGCCSNPACRVNNPNIC-NH2; disulfide 3-9, 4-17)
IC50 (human α3β4 nAChR): > 10000 nM
IC50 (Ls-AChBP): 210 ± 40 nM
IC50 (human α7 nAChR): 70 ± 7 nM
IC50 (Ac-AChBP): 5.44 ± 0.35 nM
